Results from the NIST ThermoML archive (doi:10.1021/acs.jced.9b00752).
Values joined by “and” are separate entries in the source; they are usually repeats but may differ in a detail not shown here. Equal entries are not always repeated. ± gives the expanded uncertainty stated by the source.

Assay: mn = molality of the nth substance listed, in mol/kg
Settings: 100 kPa, Liquid, Vibrating tube method

Q: Which results are given for `N[C@@H](Cc1ccc(O)cc1)C(=O)O` [3-(p-hydroxyphenyl)-L-alanine] + O?
A: mass density (273.65 K, m1 = 0.0005): 999.883 ± 0.1 kg/m3; mass density (273.65 K, m1 = 0.001): 999.917 ± 0.1 kg/m3; mass density (273.65 K, m1 = 0.0011): 999.943 ± 0.1 kg/m3; mass density (273.65 K, m1 = 0.0022): 1000.01 ± 0.1 kg/m3; mass density (273.65 K, m1 = 0.0026): 1000.03 ± 0.1 kg/m3; mass density (273.65 K, m1 = 0.0035): 1000.1 ± 0.1 kg/m3; mass density (273.65 K, m1 = 0.0036): 1000.1 ± 0.1 kg/m3; mass density (273.65 K, m1 = 0.0038): 1000.11 ± 0.1 kg/m3; mass density (273.65 K, m1 = 0.0045): 1000.16 ± 0.1 kg/m3 and 1000.17 ± 0.1 kg/m3; mass density (273.65 K, m1 = 0.0047): 1000.16 ± 0.1 kg/m3; mass density (273.65 K, m1 = 0.0053): 1000.21 ± 0.1 kg/m3 and 1000.22 ± 0.1 kg/m3; mass density (273.65 K, m1 = 0.0055): 1000.21 ± 0.1 kg/m3; mass density (274.15 K, m1 = 0.0005): 999.909 ± 0.1 kg/m3; mass density (274.15 K, m1 = 0.001): 999.942 ± 0.1 kg/m3; mass density (274.15 K, m1 = 0.0011): 999.97 ± 0.1 kg/m3; mass density (274.15 K, m1 = 0.0022): 1000.04 ± 0.1 kg/m3; mass density (274.15 K, m1 = 0.0026): 1000.06 ± 0.1 kg/m3; mass density (274.15 K, m1 = 0.0035): 1000.13 ± 0.1 kg/m3; mass density (274.15 K, m1 = 0.0036): 1000.13 ± 0.1 kg/m3; mass density (274.15 K, m1 = 0.0038): 1000.13 ± 0.1 kg/m3; mass density (274.15 K, m1 = 0.0045): 1000.18 ± 0.1 kg/m3 and 1000.2 ± 0.1 kg/m3; mass density (274.15 K, m1 = 0.0047): 1000.19 ± 0.1 kg/m3; mass density (274.15 K, m1 = 0.0053): 1000.23 ± 0.1 kg/m3 and 1000.25 ± 0.1 kg/m3; mass density (274.15 K, m1 = 0.0055): 1000.23 ± 0.1 kg/m3; mass density (274.65 K, m1 = 0.0005): 999.932 ± 0.1 kg/m3; mass density (274.65 K, m1 = 0.001): 999.965 ± 0.1 kg/m3; mass density (274.65 K, m1 = 0.0011): 999.993 ± 0.1 kg/m3; mass density (274.65 K, m1 = 0.0022): 1000.06 ± 0.1 kg/m3; mass density (274.65 K, m1 = 0.0026): 1000.08 ± 0.1 kg/m3; mass density (274.65 K, m1 = 0.0035): 1000.15 ± 0.1 kg/m3; mass density (274.65 K, m1 = 0.0036): 1000.15 ± 0.1 kg/m3; mass density (274.65 K, m1 = 0.0038): 1000.15 ± 0.1 kg/m3; mass density (274.65 K, m1 = 0.0045): 1000.21 ± 0.1 kg/m3 and 1000.22 ± 0.1 kg/m3; mass density (274.65 K, m1 = 0.0047): 1000.21 ± 0.1 kg/m3; mass density (274.65 K, m1 = 0.0053): 1000.26 ± 0.1 kg/m3 and 1000.27 ± 0.1 kg/m3; mass density (274.65 K, m1 = 0.0055): 1000.25 ± 0.1 kg/m3; mass density (275.15 K, m1 = 0.0005): 999.95 ± 0.1 kg/m3; mass density (275.15 K, m1 = 0.001): 999.984 ± 0.1 kg/m3; mass density (275.15 K, m1 = 0.0011): 1000.01 ± 0.1 kg/m3; mass density (275.15 K, m1 = 0.0022): 1000.08 ± 0.1 kg/m3; mass density (275.15 K, m1 = 0.0026): 1000.1 ± 0.1 kg/m3; mass density (275.15 K, m1 = 0.0035): 1000.17 ± 0.1 kg/m3; mass density (275.15 K, m1 = 0.0036): 1000.17 ± 0.1 kg/m3; mass density (275.15 K, m1 = 0.0038): 1000.17 ± 0.1 kg/m3; mass density (275.15 K, m1 = 0.0045): 1000.23 ± 0.1 kg/m3 and 1000.24 ± 0.1 kg/m3; mass density (275.15 K, m1 = 0.0047): 1000.23 ± 0.1 kg/m3; mass density (275.15 K, m1 = 0.0053): 1000.27 ± 0.1 kg/m3 and 1000.28 ± 0.1 kg/m3; mass density (275.15 K, m1 = 0.0055): 1000.27 ± 0.1 kg/m3; mass density (275.65 K, m1 = 0.0005): 999.963 ± 0.1 kg/m3; mass density (275.65 K, m1 = 0.001): 999.997 ± 0.1 kg/m3; mass density (275.65 K, m1 = 0.0011): 1000.02 ± 0.1 kg/m3; mass density (275.65 K, m1 = 0.0022): 1000.09 ± 0.1 kg/m3; mass density (275.65 K, m1 = 0.0026): 1000.11 ± 0.1 kg/m3; mass density (275.65 K, m1 = 0.0035): 1000.18 ± 0.1 kg/m3; mass density (275.65 K, m1 = 0.0036): 1000.18 ± 0.1 kg/m3; mass density (275.65 K, m1 = 0.0038): 1000.18 ± 0.1 kg/m3; mass density (275.65 K, m1 = 0.0045): 1000.24 ± 0.1 kg/m3 and 1000.25 ± 0.1 kg/m3; mass density (275.65 K, m1 = 0.0047): 1000.24 ± 0.1 kg/m3; mass density (275.65 K, m1 = 0.0053): 1000.29 ± 0.1 kg/m3 and 1000.3 ± 0.1 kg/m3; mass density (275.65 K, m1 = 0.0055): 1000.29 ± 0.1 kg/m3; mass density (276.15 K, m1 = 0.0005): 999.972 ± 0.1 kg/m3; mass density (276.15 K, m1 = 0.001): 1000 ± 0.1 kg/m3; mass density (276.15 K, m1 = 0.0011): 1000.03 ± 0.1 kg/m3; mass density (276.15 K, m1 = 0.0022): 1000.1 ± 0.1 kg/m3; mass density (276.15 K, m1 = 0.0026): 1000.12 ± 0.1 kg/m3; mass density (276.15 K, m1 = 0.0035): 1000.19 ± 0.1 kg/m3; mass density (276.15 K, m1 = 0.0036): 1000.19 ± 0.1 kg/m3; mass density (276.15 K, m1 = 0.0038): 1000.19 ± 0.1 kg/m3; mass density (276.15 K, m1 = 0.0045): 1000.25 ± 0.1 kg/m3; mass density (276.15 K, m1 = 0.0047): 1000.25 ± 0.1 kg/m3; mass density (276.15 K, m1 = 0.0053): 1000.29 ± 0.1 kg/m3 and 1000.31 ± 0.1 kg/m3; mass density (276.15 K, m1 = 0.0055): 1000.29 ± 0.1 kg/m3; mass density (276.65 K, m1 = 0.0005): 999.98 ± 0.1 kg/m3; mass density (276.65 K, m1 = 0.001): 1000.01 ± 0.1 kg/m3; mass density (276.65 K, m1 = 0.0011): 1000.04 ± 0.1 kg/m3; mass density (276.65 K, m1 = 0.0022): 1000.11 ± 0.1 kg/m3; mass density (276.65 K, m1 = 0.0026): 1000.13 ± 0.1 kg/m3; mass density (276.65 K, m1 = 0.0035): 1000.19 ± 0.1 kg/m3; mass density (276.65 K, m1 = 0.0036): 1000.2 ± 0.1 kg/m3; mass density (276.65 K, m1 = 0.0038): 1000.2 ± 0.1 kg/m3; mass density (276.65 K, m1 = 0.0045): 1000.25 ± 0.1 kg/m3 and 1000.26 ± 0.1 kg/m3; mass density (276.65 K, m1 = 0.0047): 1000.26 ± 0.1 kg/m3; mass density (276.65 K, m1 = 0.0053): 1000.3 ± 0.1 kg/m3 and 1000.31 ± 0.1 kg/m3; mass density (276.65 K, m1 = 0.0055): 1000.3 ± 0.1 kg/m3; mass density (277.15 K, m1 = 0.0005): 999.979 ± 0.1 kg/m3; mass density (277.15 K, m1 = 0.001): 1000.01 ± 0.1 kg/m3; mass density (277.15 K, m1 = 0.0011): 1000.04 ± 0.1 kg/m3; mass density (277.15 K, m1 = 0.0022): 1000.11 ± 0.1 kg/m3; mass density (277.15 K, m1 = 0.0026): 1000.13 ± 0.1 kg/m3; mass density (277.15 K, m1 = 0.0035): 1000.2 ± 0.1 kg/m3; mass density (277.15 K, m1 = 0.0036): 1000.2 ± 0.1 kg/m3; mass density (277.15 K, m1 = 0.0038): 1000.2 ± 0.1 kg/m3; mass density (277.15 K, m1 = 0.0045): 1000.25 ± 0.1 kg/m3 and 1000.26 ± 0.1 kg/m3; mass density (277.15 K, m1 = 0.0047): 1000.26 ± 0.1 kg/m3; mass density (277.15 K, m1 = 0.0053): 1000.3 ± 0.1 kg/m3 and 1000.31 ± 0.1 kg/m3; mass density (277.15 K, m1 = 0.0055): 1000.3 ± 0.1 kg/m3; mass density (277.65 K, m1 = 0.0005): 999.978 ± 0.1 kg/m3; mass density (277.65 K, m1 = 0.001): 1000.01 ± 0.1 kg/m3; mass density (277.65 K, m1 = 0.0011): 1000.04 ± 0.1 kg/m3; mass density (277.65 K, m1 = 0.0022): 1000.11 ± 0.1 kg/m3; mass density (277.65 K, m1 = 0.0026): 1000.13 ± 0.1 kg/m3; mass density (277.65 K, m1 = 0.0035): 1000.19 ± 0.1 kg/m3; mass density (277.65 K, m1 = 0.0036): 1000.19 ± 0.1 kg/m3; mass density (277.65 K, m1 = 0.0038): 1000.2 ± 0.1 kg/m3; mass density (277.65 K, m1 = 0.0045): 1000.25 ± 0.1 kg/m3 and 1000.26 ± 0.1 kg/m3; mass density (277.65 K, m1 = 0.0047): 1000.25 ± 0.1 kg/m3; mass density (277.65 K, m1 = 0.0053): 1000.3 ± 0.1 kg/m3 and 1000.31 ± 0.1 kg/m3; mass density (277.65 K, m1 = 0.0055): 1000.3 ± 0.1 kg/m3; mass density (278.15 K, m1 = 0.0005): 999.972 ± 0.1 kg/m3; mass density (278.15 K, m1 = 0.001): 1000 ± 0.1 kg/m3; mass density (278.15 K, m1 = 0.0011): 1000.03 ± 0.1 kg/m3; mass density (278.15 K, m1 = 0.0022): 1000.1 ± 0.1 kg/m3; mass density (278.15 K, m1 = 0.0026): 1000.12 ± 0.1 kg/m3; mass density (278.15 K, m1 = 0.0035): 1000.19 ± 0.1 kg/m3; mass density (278.15 K, m1 = 0.0036): 1000.19 ± 0.1 kg/m3; mass density (278.15 K, m1 = 0.0038): 1000.19 ± 0.1 kg/m3; mass density (278.15 K, m1 = 0.0045): 1000.24 ± 0.1 kg/m3 and 1000.25 ± 0.1 kg/m3; mass density (278.15 K, m1 = 0.0047): 1000.25 ± 0.1 kg/m3; mass density (278.15 K, m1 = 0.0053): 1000.29 ± 0.1 kg/m3 and 1000.3 ± 0.1 kg/m3; mass density (278.15 K, m1 = 0.0055): 1000.29 ± 0.1 kg/m3
